Laboratory results: PMC7956620 (Molecules, 2021)
Substitutions are numbered along the chain they refer to.

Key:
Type in all cases: cell-based
Conditions in all cases: 100 µM chanoclavine, read-out: Inhibition Percentage (%)
[1] = target: T1, 5-HT3A receptor I71A mutant (Homo sapiens, UniProt P46098, I66A); test: two-electrode voltage clamp, I71A mutant receptor in Xenopus oocytes
T1 construct: host or cells: Xenopus laevis oocytes injected with in vitro transcribed mRNA
T1 sequence (P46098 24-478 I66A): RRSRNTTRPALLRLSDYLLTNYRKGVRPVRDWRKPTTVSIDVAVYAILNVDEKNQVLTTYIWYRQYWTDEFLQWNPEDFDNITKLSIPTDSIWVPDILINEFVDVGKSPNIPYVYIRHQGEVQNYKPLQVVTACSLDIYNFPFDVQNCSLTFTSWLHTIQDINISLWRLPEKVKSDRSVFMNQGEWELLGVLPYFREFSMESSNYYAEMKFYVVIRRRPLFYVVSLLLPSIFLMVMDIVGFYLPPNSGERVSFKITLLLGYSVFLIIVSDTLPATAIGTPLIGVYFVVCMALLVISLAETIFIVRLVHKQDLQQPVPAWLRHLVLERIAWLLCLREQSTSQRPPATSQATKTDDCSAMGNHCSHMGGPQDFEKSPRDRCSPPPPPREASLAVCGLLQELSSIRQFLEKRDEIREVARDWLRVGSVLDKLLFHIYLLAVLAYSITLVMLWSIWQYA
Description: (§1) The site-directed mutation of one or two amino acids was performed using sense and antisense primers and Pfu polymerase (QuickChange Site-Directed Mutagenesis Kit; Agilent, Santa Clara, CA, USA) and amplified by polymerase chain reaction (PCR) to increase the target domain. After removing the existing methylated cDNA using Dpn Ⅰ, the PCR products were transformed into Escherichia coli strain DH5α. The cDNA of the 5-HT3A receptor was linearized by Xho Ⅰ at the end of the multi-cloning site, followed by transcription using T7 polymerase and a transcription kit (mMESSAGE mMACHINE T7 Transcription Kit; Thermo Fisher Scientific, Waltham, MA, USA). […]
(§2) To isolate oocytes, female Xenopus laevis were put into a container filled with ice and left for about one hour. […] When the Xenopus oocytes were ready for injection, 50 ng of mRNA was injected with a nanoliter injector (Drummond Scientific, Vernon Hills, IL, USA). […]
(§3) The oocytes in which mRNA was expressed during the incubation period allowed for the estimation of channel or receptor properties for observing drug and ligand potential interactions using a two-electrode voltage clamp (OC-725C; Warner Instruments, Hamden, CT, USA) and Digidata (1322A; Molecular Devices, Sunnyvale, CA, USA). […] The voltage and current electrodes were filled with 3 M KCl (0.3–0.7 MΩ) and analyzed at a −80 mV holding potential. […]

[2] = target: T2, 5-HT3A receptor F130A mutant (Homo sapiens, UniProt P46098, F125A); test: two-electrode voltage clamp, F130A mutant receptor in Xenopus oocytes
T2 construct: host or cells: Xenopus laevis oocytes injected with in vitro transcribed mRNA
T2 sequence (P46098 24-478 F125A): T1 sequence (P46098 24-478 I66A) with A43I, F102A
Description: as §1, §2, §3

[3] = target: T3, 5-HT3A receptor I139A mutant (Homo sapiens, UniProt P46098, I134A/I139A); test: two-electrode voltage clamp, I139A mutant receptor in Xenopus oocytes
T3 construct: host or cells: Xenopus laevis oocytes injected with in vitro transcribed mRNA
T3 sequence (P46098 24-478 I134A/I139A): T1 sequence (P46098 24-478 I66A) with A43I, I111A, I116A
Description: as §1, §2, §3

Compound: CN[C@@H]1Cc2c[nH]c3cccc(c23)[C@H]1/C=C(\C)CO [chanoclavine]
- inhibition at 100 µM [1]: 62.7 ± 3.1%
- inhibition at 100 µM [2]: 9.36 ± 4.3%
- inhibition at 100 µM [3]: 92.8 ± 4.9%
